pIC50: −log10 of the molar value. Values belong to the compound of their own block, whether it stands above or below them.
Experiments:
[1] = test system: Docetaxel resistant (DR) cells (DU145-DR, 22RV1-DR); assay: Cross-resistance of Docetaxel resistant (DR) cells; assay type: cell-based, human; details: data not shown
[2] = test system: DU145-DR cells; assay: Cell viability assay (MTS), Docetaxel resistant DU145-DR; assay type: cell-based, human; details: for pIC50: Homo sapiens
Description: (§1) Human hormone-independent prostate cancer cell lines, DU-145 and 22RV1, were obtained from American Type Culture Collection (ATCC) and maintained in RPMI 1640 medium (Gibco, Invitrogen Corp., Carlsbad, Calif.) supplemented with 10% FBS without antibiotics. Cells were grown at 37° C. in a humidified atmosphere with 5% CO2. DU145 and 22RV1 cells were selected in order to generate a prostate cancer Docetaxel resistance model. […] Thus, the generation of acquired Docetaxel resistance in these two phenotypically distinct cell lines facilitated an approach to study the molecular processes involved in the acquisition of Docetaxel resistance. Docetaxel resistant clones, DU-145-DR and 22RV1-DR, were selected by culturing cells with Docetaxel in a dose-escalation manner. Initial culture was at 5 nM Docetaxel. After the sensitive clones were no longer present and the surviving DU-145 and 22RV1 cells repopulated the flask, the concentration of Docetaxel was increased to 10 nM and subsequently to 25 nM, 50 nM, 100 nM and 250 nM. 22RV1-DR cells were further exposed to 500 nM Docetaxel. After exposure to each increasing dose of Docetaxel, the remaining surviving cells were maintained in culture medium containing the last selection escalating dose of Docetaxel. The last drug selection concentration at which the cells were exposed was 250 nM for DU-145-DR and 500 nM for 22RV1-DR, in order to avoid reversibility of the acquired Docetaxel resistance phenotype. The process of acquired drug resistance took 9 months for DU-145-DR and 6.5 months for 22RV1-DR. […]
(§2) Cell viability was analyzed using the Cell titer 96 Aquos Non-Reactive Cell Proliferation Assay (MTS) kit (Promega Corp., Madison, Wis.). […] After 72 hours, color absorbance was measured on a microplate spectrophotometer (Molecular Dynamics) at 450 nm (test wavelength) and 620 nm (reference wavelength). […] Cells were then fixed with 4% paraformaldehyde in PBS, stained with crystal violet solution and formed colonies were visually counted.

[3] = test system: DU145 cells; assay: Cell viability assay (MTS), parental DU145; assay type: cell-based; details: Homo sapiens, DU-145; parental DU145, 72 hours; read-out: Docetaxel IC50
Description: (§3) Human hormone-independent prostate cancer cell lines, DU-145 and 22RV1, were obtained from American Type Culture Collection (ATCC) and maintained in RPMI 1640 medium (Gibco, Invitrogen Corp., Carlsbad, Calif.) supplemented with 10% FBS without antibiotics. Cells were grown at 37° C. in a humidified atmosphere with 5% CO2. DU145 and 22RV1 cells were selected in order to generate a prostate cancer Docetaxel resistance model. […] Thus, the generation of acquired Docetaxel resistance in these two phenotypically distinct cell lines facilitated an approach to study the molecular processes involved in the acquisition of Docetaxel resistance. Docetaxel resistant clones, DU-145-DR and 22RV1-DR, were selected by culturing cells with Docetaxel in a dose-escalation manner. Initial culture was at 5 nM Docetaxel. […]
as §2

[4] = test system: 22RV1 and DU145 parental (sensitive) cells; assay: Colony formation assay, Docetaxel sensitive parental cells; assay type: cell-based, human; details: continuous Docetaxel for 21 days (25 nM in 22RV1, 5 nM in DU145)
Description: (§4) Cell viability was analyzed using the Cell titer 96 Aquos Non-Reactive Cell Proliferation Assay (MTS) kit (Promega Corp., Madison, Wis.). Cells were seeded at a density of 10^4 in 96-well culture dishes and 24 hours later medium was removed and replaced with new medium alone (control) or medium containing drugs. After 72 hours, color absorbance was measured on a microplate spectrophotometer (Molecular Dynamics) at 450 nm (test wavelength) and 620 nm (reference wavelength). The percentage of surviving cells was estimated by dividing the A 450 nm-A 620 nm of treated cells by the A 450 nm-A 620 nm of control cells. Clonogenic survival assays in response to drug treatment were performed by plating 10^3 cells in 35 mm culture dishes. After 24 hours, cells were left untreated (control) or treated with drugs. Next day, medium was changed and the cells kept growing in fresh medium without any drug or under continuous exposure to drugs. For these continuous exposure experiments, medium plus drugs were replaced every 3 days until clones of drug-resistant cells appeared. Cells were then fixed with 4% paraformaldehyde in PBS, stained with crystal violet solution and formed colonies were visually counted.

[5] = test system: DU145-CK19 promoter-GFP stable cells sorted by GFP/HLA class I; assay: Colony formation assay of GFP/HLA class I sorted cells under Docetaxel; assay type: cell-based, human; details: Docetaxel 10 nM continuously
Description: as §4

[6] = test system: DU145-CK19 promoter-GFP stable cells; assay: Flow cytometry of GFP populations surviving Docetaxel; assay type: cell-based, human; details: Docetaxel 10 nM, 48 hours
Description: CK19 gene promoter region was amplified from DU145 cells genomic DNA by PCR with specific primer sets (Fw 5′-[…]-3′ (SEQ ID NO: 1) and Rv 5′-[…]-3′ (SEQ ID NO: 2)) as described previously (Tripathi et al., 2005. The PCR products were digested with Ase I and Hind III and cloned into pEGFPN1 vector (Clontech, Mountain View, Calif.) previously digested with the same enzymes. As a result, the CMV promoter was removed from the original vector and the GFP expression was under control of the CK19 promoter. The final construct was confirmed by digestion and sequencing analysis. DU145 cells were transfected with pCK19-GFP construct using Lipofectamine Plus 2000 (Invitrogen). After 24 hours, medium was replaced with fresh medium and stably expressing cells selected in the presence of G418 (Invitrogen). Positive clones were confirmed by direct microscopy and immunofluorescence and also by PCR amplification of GFP coding region using specific primers (Fw 5′-[…]-3′ (SEQ ID NO: 3) and Rv 5′-[…]-3′ (SEQ ID NO: 4)).
Flow cytometry analysis of subpopulations of prostate cancer cells were carried out following standard procedures. Intracellular CK19 and CK18 expression was performed in single-cell suspensions fixed with 70% ethanol, whereas the expression of cell surface HLA class I and GFP was determined in fresh cell samples (without fixation). […] A minimum of 10^4 cells were measured per sample.

[7] = test system: 22RV1 cells; assay: Cell viability assay (MTS), parental 22RV1; assay type: cell-based; details: Homo sapiens; parental 22RV1, 72 hours; read-out: Docetaxel IC50
Description: as §3, §2

[8] = test system: 22RV1-DR cells; assay: Cell viability assay (MTS), Docetaxel resistant 22RV1-DR; assay type: cell-based, human; details: for pIC50: Homo sapiens
Description: as §1, §2

[9] = test system: 22RV1-DR and DU145-DR (resistant) cells; assay: Colony formation assay, Docetaxel resistant cells; assay type: cell-based, human; details: continuous Docetaxel for 21 days
Description: as §4

SMILES: N.N.[Cl][Pt][Cl] [Cisplatin]
cross-resistance of Docetaxel resistant cells [1]: cross-resistance

fold increase of Docetaxel IC50 ([2]; DU145-DR versus DU145): 200 fold
pIC50 ([2]; DU145-DR acquired resistant cells, 72 hours): 6.00
pIC50 ([2]; DU145-DR after 12 weeks of drug withdrawal): 7.60
fold increase of Docetaxel IC50 ([8]; 22RV1-DR versus 22RV1): 400 fold
pIC50 ([8]; 22RV1-DR acquired resistant cells, 72 hours): 5.00
pIC50 ([8]; 22RV1-DR after 12 weeks of drug withdrawal): 7.30
SMILES: CC(=O)O[C@@]12CO[C@@H]1C[C@H](O)[C@@]1(C)C(=O)[C@H](O)C3=C(C)[C@@H](OC(=O)[C@H](O)[C@@H](NC(=O)OC(C)(C)C)c4ccccc4)C[C@@](O)([C@@H](OC(=O)c4ccccc4)[C@H]21)C3(C)C [Docetaxel]
pIC50 [3]: 8.30
colony formation [4]: No colonies were observed
clone formation under continuous exposure [5]: only tumour cells with a GFP-negative/HLA class I-negative phenotype were able to form clones
GFP-negative phenotype, % of the total population after treatment ([6]; initially 6.4±4.3%): 73.1±10.2%
GFP-positive phenotype, % of the total cell population after treatment ([6]; initially 87.5±10.4%): 28.3±10.6%
pIC50 [7]: 7.60
colony formation [9]: colonies were observed

SMILES: CCC1=C[C@@H]2CN(C1)Cc1c([nH]c3ccccc13)[C@@](C(=O)OC)(c1cc3c(cc1OC)N(C)[C@H]1[C@@](O)(C(=O)OC)[C@H](OC(C)=O)[C@]4(CC)C=CCN5CC[C@]31[C@@H]54)C2 [Vinorelbine]
cross-resistance of Docetaxel resistant cells [1]: cross-resistance

SMILES: CC(=O)O[C@H]1C(=O)[C@@]2(C)[C@H]([C@H](OC(=O)c3ccccc3)[C@]3(O)C[C@H](OC(=O)[C@H](O)[C@@H](NC(=O)c4ccccc4)c4ccccc4)C(C)=C1C3(C)C)[C@]1(OC(C)=O)CO[C@@H]1C[C@@H]2O [Paclitaxel]
cross-resistance of Docetaxel resistant cells [1]: cross-resistance

SMILES: O=C1c2c(O)ccc(O)c2C(=O)c2c(NCCNCCO)ccc(NCCNCCO)c21 [Mitoxantrone]
cross-resistance of Docetaxel resistant cells [1]: cross-resistance

SMILES: COc1cccc2c1C(=O)c1c(O)c3c(c(O)c1C2=O)C[C@@](O)(C(=O)CO)C[C@@H]3O[C@H]1C[C@H](N)[C@H](O)[C@H](C)O1 [Doxorubicin]
cross-resistance of Docetaxel resistant cells [1]: cross-resistance

Source: patent US20160187320A1, “ASSAY FOR SCREENING COMPOUNDS THAT SELECTIVELY DECREASE THE NUMBER OF CANCER STEM CELLS” (THE ROGOSIN INSTITUTE, priority 2011, published 2016)
